Test results from paper PMC12254266, “Multicolored sequential resonance energy transfer for detection of simultaneous ligand binding at G protein-coupled receptors” (Nature Communications, 2025).
Where “and” joins values, the source holds several entries; their conditions need not be identical. Identical values can stand only once. Like-named read-outs stand apart in the source and are kept apart here.

How the values were obtained:
FFA1 = FFA1 (Homo sapiens, UniProt O14842); assay: Ca2+ mobilisation (Fura2) in Flp-In T-REx 293 cells expressing Nluc-FFA1, FFA1-Nluc or untagged FFA1; format: cell-based; parameters: expressed in transfected cells; details: for pEC50: Ca2+ data, mean±SEM; for pEC50 / EMax: NR = No response; for EMax: percentage of response to 10 μM T360
In short: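 520 nm emission read at 340 and 380 nm excitation over 90 s spanning compound addition. Response taken as peak 340/380 ratio after subtracting pre-addition ratios.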

Nluc-FFA1 = molecular target: T1, Nluc-FFA1 (Homo sapiens, UniProt O14842); assay: NanoBRET binding (saturation, competition, kinetics) at N terminal Nluc tagged FFA1; details: for kOff Nano-BRET: TUG-2591 100 nM then TUG-905 10 μM, or TUG-2597 […] then T360 10 μM; for kOff Nano-BRET Multiple Concentration / kOn Nano-BRET Multiple Concentration: multiple concentration of labelled ligand association model; for kOff Nano-BRET Allosterism, Nluc-FFA1: TUG-2591 (1 μM) in the presence of T360 (30μM), TUG-2597 (1 μM) in the presence of TUG-905 (30μM), 95% CI in parentheses
T1 construct: expressed in transfected cells

FFA1-Nluc = FFA1-Nluc (Homo sapiens, UniProt O14842); assay: Bystander BRET internalisation assay, FFA1-Nluc in HEK293T cells; format: cell-based; parameters: expressed in transfected cells; host or cells: HEK293T (ATCC, CRL-3216), transient; details: in words; up to 60 min
Description: Cells were transfected using a reverse transfection protocol while plating into a poly-D-lysine coated white 96-well plates. Cells were plated at 60,000 cells with 100 ng of plasmid DNA and 0.6 µg of polyethyleneimine (PEI) per well. Cells were cultured for 24 h before washing with HBSS and incubating in HBSS at 37 °C for 30 min. NanoGlo substrate was added a final 1:800 dilution and plates incubated for 10 min at 37 °C. […] After 5 min of baseline measurements, readings were paused and test compounds added to the plate.

[1] = FFA1-Nluc cells, log[ligand] -6.5, technical replicates
[2] = Nluc-FFA1 cells, log[ligand] -6.5, technical replicates
[3] = log[Ligand] -5, single technical replicates
[4] = log[Ligand] -5.5, single technical replicates
[5] = log[Ligand] -6, single technical replicates
[6] = log[Ligand] -6.5, single technical replicates
[7] = log[Ligand] -7, single technical replicates
[8] = log[Ligand] -8, single technical replicates
[9] = log[Ligand] -9, single technical replicates
[10] = Nluc-FFA1, 95% confidence interval in parentheses, read-out: Kd, saturation BRET binding
[11] = Nluc-FFA1, association then dissociation model
[12] = Nluc-FFA1, association then dissociation model, read-out: Kd Nano-BRET (kinetic)
[13] = Nluc-FFA1, read-out: Kd Nano-BRET Multiple Concentration (kinetic)
[14] = footnotes of Supplementary Table 3, read-out: Kd values obtained in NanoBRET saturation experiments (used for pKi) (converted)

T1 sequence (O14842 whole entry): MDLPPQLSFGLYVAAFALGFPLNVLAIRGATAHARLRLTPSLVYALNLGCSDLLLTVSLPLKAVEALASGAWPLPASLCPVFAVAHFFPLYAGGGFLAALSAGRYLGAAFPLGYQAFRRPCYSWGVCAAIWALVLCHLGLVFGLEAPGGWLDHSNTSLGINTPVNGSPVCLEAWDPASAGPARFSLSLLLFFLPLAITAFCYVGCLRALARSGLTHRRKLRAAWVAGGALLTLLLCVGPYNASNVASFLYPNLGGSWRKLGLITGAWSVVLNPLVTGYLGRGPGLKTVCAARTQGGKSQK
Chain of FFA1 (O14842 whole entry): as above
Chain of FFA1-Nluc (O14842 whole entry): as above

SMILES | pEC50 (FFA1) | Ca2+ Response as a % of T360 Response (FFA1; [1]) | Ca2+ Response as a % of T360 Response (FFA1; [2]) | Ca2+ Response as a % of T360 Response (FFA1; [3]) | Ca2+ Response as a % of T360 Response (FFA1; [4]) | Ca2+ Response as a % of T360 Response (FFA1; [5]) | Ca2+ Response as a % of T360 Response (FFA1; [6]) | Ca2+ Response as a % of T360 Response (FFA1; [7]) | Ca2+ Response as a % of T360 Response (FFA1; [8]) | Ca2+ Response as a % of T360 Response (FFA1; [9]) | EMax (FFA1) [%] | Kd (Nluc-FFA1; [10]) [µM] | kOn Nano-BRET (Nluc-FFA1; [11]) [M⁻¹ s⁻¹] | kOff Nano-BRET (Nluc-FFA1; [11]) [s⁻¹] | Kd (Nluc-FFA1; [12]) [µM] | kOff Nano-BRET Multiple Concentration (Nluc-FFA1; Nluc-FFA1) [s⁻¹] | kOn Nano-BRET Multiple Concentration (Nluc-FFA1; Nluc-FFA1) [M⁻¹ s⁻¹] | Kd (Nluc-FFA1; [13]) [µM] | kOff Nano-BRET Allosterism, Nluc-FFA1 (Nluc-FFA1) | Kd (Nluc-FFA1; [14]) [µM] | also measured
Cc1cc(OCCCNC(=O)CCCN2\C(=C/C=C/C=C/C3=[N+](C)c4ccc(S(=O)(=O)[O-])cc4C3(C)C)C(C)(C)c3ccccc32)ccc1-c1cccc(COc2ccc(CCC(=O)O)c(F)c2)c1 [TUG-2591] | 6.47±0.16 | 55.49% and 52.86% and 28.95% and 51.39% and 72.16% and 71.58% and 70.75% and 43.70% and 49.38% | 34.81% and 37.98% and 35.96% and 31.33% and 37.74% and 35.87% and 21.49% and 18.21% and 19.57% | 61.66% and 51.52% and 46.84% and 86.56% and 82.15% and 71.83% and 71.15% and 53.72% | 62.71% and 47.16% and 58.62% and 85.53% and 80.90% and 77.51% and 55.09% and 51.22% | 62.82% and 60.50% and 58.53% and 87.03% and 71.98% and 71.50% and 53.51% and 60.26% and 56.70% | 34.81% and 37.98% and 35.96% and 31.33% and 37.74% and 35.87% and 21.49% and 18.21% and 19.57% | 17.82% and 28.31% and 29.67% and 8.27% and 1.38% and 7.74% and -0.10% and 0.12% and -1.53% | 10.54% and 11.17% and 19.68% and 8.20% and 7.07% and 9.22% and 0.11% and 1.85% and 0.30% | 1.04% and 5.22% and 4.78% and 4.50% and 4.79% and 3.13% and 2.97% and -0.0331% and -1.56% | 73±9 | 0.21 | 26666.67 | 0.00683 | 0.25 | 0.0207 | 125000 | 0.17 | 0.034 (0.032-0.035) min-1 | 0.2 | Ca2+ Response as a % of T360 Response (FFA1; FFA1-Nluc cells, log[ligand] -7, technical replicates): 8.16%; Ca2+ Response as a % of T360 Response (FFA1; Nluc-FFA1 cells, log[ligand] -7, technical replicates): 17.82% and 28.31% and 29.67% and 8.27% and 1.38% and 7.74% and -0.10% and 0.12%; Ca2+ Response as a % of T360 Response (FFA1; untagged FFA1 cells, log[ligand] -6.5, technical replicates): 69.40% and 67.64% and 73.36% and 82.87% and 85.96% and 73.97% and 51.16% and 43.14% and 56.15% and 83.71% and 86.53% and 111.93%; BMax, saturation BRET binding (Nluc-FFA1; Nluc-FFA1, specific BRET, 95% confidence interval in parentheses): 0.31 (0.27-0.37); off-rate, times faster in single ligand NanoBRET compared with dual ligand DISCo-BRET (Nluc-FFA1; ratio of off-rates): ~ 10; internalization of FFA1-Nluc (FFA1-Nluc): No internalization
COc1ccc(C(=O)N(CC(C)(C)CNc2ccc([N+](=O)[O-])c3nonc23)c2cccc(C)n2)c(N2CCC(COc3cccc(C(CC(=O)O)C4CC4)c3)CC2)c1.O=C(O)C(F)(F)F (centres unmarked) [TUG-2597] | 7.27±0.15 | 93.856% | 75.000% and 74.673% and 79.991% and 79.440% and 88.972% and 77.424% | 94.1089% and 100.3658% and 94.0694% and 95.2773% and 93.4218% and 94.0281% and 113.6201% and 103.7535% and 91.4802% | 88.4228% and 88.1164% and 92.8756% and 94.9449% and 95.8176% and 102.8518% and 111.3779% and 100.7045% and 94.6978% | 102.9594% and 94.0443% and 86.0972% and 89.8623% and 94.5572% and 93.9027% and 112.3722% and 96.0847% and 99.4485% | 98.0209% and 82.7239% and 91.3275% and 93.3935% and 84.3453% and 87.8268% and 93.2804% and 88.9497% and 93.8558% | 78.0026% and 75.4199% and 62.2477% and 75.7232% and 79.9853% and 65.5987% and 54.9740% and 35.8972% and 43.3457% | 14.2762% and 15.7577% and 11.8329% and 8.5966% and 24.0260% and 6.3496% and -0.7745% and -0.6973% and 0.6419% | 2.8056% and 3.1175% and 1.8245% and 0.4833% and 3.2822% and 3.2529% and 0.4143% and 0.1324% and 3.0301% | 101±4 | 0.39 | 58333.33 | 0.00633 | 0.11 | 0.0065 | 12000 | 0.54 | 0.20 (0.195-0.203) min-1 | 0.38 | Ca2+ Response as a % of T360 Response (FFA1; FFA1-Nluc cells, log[ligand] -6, technical replicates): 99.449% and 102.959% and 94.044% and 86.097% and 89.862% and 94.557% and 93.903% and 112.372% and 96.085%; Ca2+ Response as a % of T360 Response (FFA1; Nluc-FFA1 cells, log[ligand] -6, technical replicates): 98.502% and 90.832% and 83.286% and 100.456% and 100.532% and 98.348% and 86.132% and 101.429% and 99.802%; activity in Ca2+ assays (FFA1; in words): full agonist activity; Ca2+ Response as a % of T360 Response (FFA1; untagged FFA1 cells, log[ligand] -6, technical replicates): 93.834% and 82.677% and 85.015% and 110.264% and 98.194% and 98.400% and 82.235% and 72.424% and 63.906% and 83.124% and 92.268% and 73.931%; Specific BRET (Nluc-FFA1; Nluc-FFA1 (Fig 1F), percentage of the maximal signal, [TUG-2597] 550 nM): 73.921% and 62.249% and 55.324% and 54.737% and 83.741% and 100.190%; Specific BRET (540/450) Ratio (Nluc-FFA1; Nluc-FFA1, [TUG-2597] 100 nM): 0.0112 and 0.0100 and 0.0162 and 0.0091 and 0.0128 and 0.0161; Specific BRET (540/450) Ratio (Nluc-FFA1; Nluc-FFA1, [TUG-2597] 550 nM): 0.0530 and 0.0471 and 0.0466; Specific BRET (540/450) Ratio (Nluc-FFA1; Nluc-FFA1, [TUG-2597] 1000 nM): 0.0547 and 0.0609 and 0.0560 and 0.0683 and 0.0664 and 0.0577; Kd (Nluc-FFA1; using either Nluc location (N or C terminal), read-out: Kd, saturation NanoBRET): 0.35 to 0.44 µM; internalization of FFA1-Nluc (FFA1-Nluc): No internalization
